Patent US20070128217A1 (priority 2003, published 2007)

Assays:
[1] = system: recombinant human anti-SARS-CoV antibody 03-018; assay type: binding; parameters: Binding of antibody 03-018 to linear peptides of the N protein of SARS-CoV Urbani / Binding of antibody 03-018 to looped/cyclic peptides of the N protein of SARS-CoV Urbani: unit not given here
[2] = system: control sera (pooled serum of ten healthy LUMC hospital workers; commercial negative donor pooled serum from the Dutch bloodbank); assay type: binding, human; parameters: Binding of Control serum LUMC to linear peptides / Binding of Control serum Blood-bank to linear peptides / Binding of Control serum LUMC to looped peptides / Binding of Control Serum Blood-Bank to Looped peptides / Binding of Control serum LUMC to linear peptides of the protein M of SARS-CoV Urbani / Binding of Control serum Blood-bank to linear peptides of the protein M of SARS-CoV Urbani / Binding of Control serum LUMC to looped peptides of the protein M of SARS-CoV Urbani / Binding of Control Serum Blood-Bank to Looped peptides of the protein M of SARS-CoV Urbani: unit not given here
[3] = system: antibodies in sera from SARS patients (sera 1a, 1b, 2, 6, 37, 62, London, SARS-yellow, SARS-green); assay type: binding, human; parameters: Binding of serum 6 to linear peptides of protein X1 of SARS-CoV Urbani / Binding of serum 37 to linear peptides of protein X1 of SARS-CoV Urbani / Binding of serum 6 to looped/cyclic peptide (PEPSCAN-ELISA) / Binding of serum 37 to looped/cyclic peptide (PEPSCAN-ELISA) / Binding of serum 37 to looped/cyclic peptides of protein X1 of SARS-CoV Urbani / Binding of serum 6 to linear peptides of protein X2 / Binding of serum 37 to linear peptides of protein X2 / Binding of serum 37 to looped/cyclic peptides of protein X2 of SARS-CoV Urbani / Binding of serum 6 to linear peptides of protein M of SARS-CoV Urbani / Binding of serum 37 to linear peptides of protein M of SARS-CoV Urbani / Binding of serum 6 to looped/cyclic peptides of protein M of SARS-CoV Urbani / Binding of serum 37 to looped/cyclic peptides of protein M of SARS-CoV Urbani / Binding of serum 6 to linear peptides of protein X3 of SARS-CoV Urbani / Binding of serum 37 to linear peptides of protein X3 of SARS-CoV Urbani / Binding of serum 37 to looped/cyclic peptides of protein X3 of SARS-CoV Urbani / Binding of serum 6 to linear peptides of protein X4 of SARS-CoV Urbani / Binding of serum 37 to linear peptides of protein X4 of SARS-CoV Urbani / Binding of serum 37 to looped/cyclic peptides of protein X4 of SARS-CoV Urbani / Binding of serum 6 to linear peptides of protein X5 of SARS-CoV Urbani / Binding of serum 37 to linear peptides of protein X5 of SARS-CoV Urbani / Binding of serum 37 to looped/cyclic peptides of protein X5 of SARS-CoV Urbani / Binding of serum 6 to linear peptides of protein N of SARS-CoV Urbani / Binding of serum 37 to linear peptides of protein N of SARS-CoV Urbani / Binding of serum 6 to linear peptide (PEPSCAN-ELISA) / Binding of serum 1a to looped/cyclic peptides of protein N of SARS-CoV Urbani / Binding of serum 1b to looped/cyclic peptides of protein N of SARS-CoV Urbani / Binding of serum 2 to looped/cyclic peptides of protein N of SARS-CoV Urbani / Binding of serum 6 to looped/cyclic peptides of protein N of SARS-CoV Urbani / Binding of serum 37 to looped/cyclic peptides of protein N of SARS-CoV Urbani / Binding of serum 62 to looped/cyclic peptides of protein N of SARS-CoV Urbani / Binding of serum London to looped/cyclic peptides of protein N of SARS-CoV Urbani / Binding of serum SARS-green to looped/cyclic peptides of protein N of SARS-CoV Urbani: unit not given here
[4] = system: rabbit serum obtained by immunizing a rabbit with the SARS-CoV strain Frankfurt 1; assay type: binding; parameters: Binding of a rabbit serum to linear peptides / Binding of a rabbit serum to looped peptides / Rabbit serum linear peptides / Rabbit serum looped peptides / Binding of a rabbit serum to linear peptides of protein N of SARS-CoV Urbani (Rabbit serum linear peptides) / Binding of a rabbit serum to looped/cyclic peptides of protein N of SARS-CoV Urbani (Rabbit serum looped peptides): unit not given here

QPTVTLLPAADMDDF
Binding of antibody 03-018 to linear peptides of the N protein of SARS-CoV Urbani [1]: 0.1
Binding of antibody 03-018 to looped/cyclic peptides of the N protein of SARS-CoV Urbani [1]: 0.2
Control Serum Blood-Bank Looped peptides [2]: 0.5
Control serum Blood-bank linear peptides [2]: 0.7
Control serum LUMC linear peptides [2]: 0.5
Control serum LUMC looped peptides [2]: 0.5
Binding of serum 1a to linear peptides of protein N of SARS-CoV Urbani [3]: 0.3
Binding of serum 1a to looped/cyclic peptides of protein N of SARS-CoV Urbani [3]: 0.3
Binding of serum 1b to linear peptides of protein N of SARS-CoV Urbani [3]: 0.2
Binding of serum 1b to looped/cyclic peptides of protein N of SARS-CoV Urbani [3]: 0.2
Binding of serum 2 to linear peptides of protein N of SARS-CoV Urbani [3]: 0.2
Binding of serum 2 to looped/cyclic peptides of protein N of SARS-CoV Urbani [3]: 0.2
Binding of serum 6 to linear peptides of protein N of SARS-CoV Urbani [3]: 0.2
Binding of serum 6 to looped/cyclic peptides of protein N of SARS-CoV Urbani [3]: 0.1
Binding of serum 37 to linear peptides of protein N of SARS-CoV Urbani [3]: 1.1
Binding of serum 37 to looped/cyclic peptides of protein N of SARS-CoV Urbani [3]: 0.5
Binding of serum 62 to linear peptides of protein N of SARS-CoV Urbani [3]: 0.7
Binding of serum 62 to looped/cyclic peptides of protein N of SARS-CoV Urbani [3]: 0.3
Binding of serum London to linear peptides of protein N of SARS-CoV Urbani [3]: 0.5
Binding of serum London to looped/cyclic peptides of protein N of SARS-CoV Urbani [3]: 0.2
Binding of serum SARS-green to linear peptides of protein N of SARS-CoV Urbani [3]: 1.9
Binding of serum SARS-green to looped/cyclic peptides of protein N of SARS-CoV Urbani [3]: 0.4
Binding of serum SARS-yellow to linear peptides of protein N of SARS-CoV Urbani [3]: 0.7
Binding of serum SARS-yellow to looped/cyclic peptides of protein N of SARS-CoV Urbani [3]: 0.4
Binding of a rabbit serum to linear peptides of protein N of SARS-CoV Urbani (Rabbit serum linear peptides) [4]: 0.1
Binding of a rabbit serum to looped/cyclic peptides of protein N of SARS-CoV Urbani (Rabbit serum looped peptides) [4]: 0.0

QQGQTVTKKSAAEAS
Binding of antibody 03-018 to linear peptides of the N protein of SARS-CoV Urbani [1]: 0.1
Binding of antibody 03-018 to looped/cyclic peptides of the N protein of SARS-CoV Urbani [1]: 0.2
Binding of Control Serum Blood-Bank to Looped peptides [2]: 0.5
Binding of Control serum Blood-bank to linear peptides [2]: 0.8
Binding of Control serum LUMC to linear peptides [2]: 0.7
Binding of Control serum LUMC to looped peptides [2]: 0.5
Binding of serum 1a to looped/cyclic peptides of protein N of SARS-CoV Urbani [3]: 0.5
Binding of serum 1b to looped/cyclic peptides of protein N of SARS-CoV Urbani [3]: 0.4
Binding of serum 2 to looped/cyclic peptides of protein N of SARS-CoV Urbani [3]: 0.5
Binding of serum 6 to looped/cyclic peptides of protein N of SARS-CoV Urbani [3]: 0.3
Binding of serum 37 to looped/cyclic peptides of protein N of SARS-CoV Urbani [3]: 0.6
Binding of serum 62 to looped/cyclic peptides of protein N of SARS-CoV Urbani [3]: 0.5
Binding of serum London to looped/cyclic peptides of protein N of SARS-CoV Urbani [3]: 0.4
Binding of serum SARS-green to looped/cyclic peptides of protein N of SARS-CoV Urbani [3]: 0.8
Binding of serum SARS-yellow to looped/cyclic peptides of protein N of SARS-CoV Urbani [3]: 0.5
Recognition of the peptide by sera of SARS-CoV infected individuals, and form (linear, looped/cyclic) in which it is recognized [3]: recognized in linear form
Binding of a rabbit serum to linear peptides of protein N of SARS-CoV Urbani (Rabbit serum linear peptides) [4]: 0.2
Binding of a rabbit serum to looped/cyclic peptides of protein N of SARS-CoV Urbani (Rabbit serum looped peptides) [4]: 0.0

QRRPQGLPNNTASWF
Binding of antibody 03-018 to linear peptides of the N protein of SARS-CoV Urbani [1]: 0.1
Binding of antibody 03-018 to looped/cyclic peptides of the N protein of SARS-CoV Urbani [1]: 0.2
Binding of Control Serum Blood-Bank to Looped peptides [2]: 0.8
Binding of Control serum Blood-bank to linear peptides [2]: 0.7
Binding of Control serum LUMC to linear peptides [2]: 0.6
Binding of Control serum LUMC to looped peptides [2]: 0.9
Binding of serum 1a to linear peptides of protein N of SARS-CoV Urbani [3]: 0.2
Binding of serum 1a to looped/cyclic peptides of protein N of SARS-CoV Urbani [3]: 0.5
Binding of serum 1b to linear peptides of protein N of SARS-CoV Urbani [3]: 0.1
Binding of serum 1b to looped/cyclic peptides of protein N of SARS-CoV Urbani [3]: 0.3
Binding of serum 2 to linear peptides of protein N of SARS-CoV Urbani [3]: 0.1
Binding of serum 2 to looped/cyclic peptides of protein N of SARS-CoV Urbani [3]: 0.5
Binding of serum 6 to linear peptides of protein N of SARS-CoV Urbani [3]: 0.2
Binding of serum 6 to looped/cyclic peptides of protein N of SARS-CoV Urbani [3]: 0.4
Binding of serum 37 to linear peptides of protein N of SARS-CoV Urbani [3]: 0.6
Binding of serum 37 to looped/cyclic peptides of protein N of SARS-CoV Urbani [3]: 0.7
Binding of serum 62 to linear peptides of protein N of SARS-CoV Urbani [3]: 0.7
Binding of serum 62 to looped/cyclic peptides of protein N of SARS-CoV Urbani [3]: 0.6
Binding of serum London to linear peptides of protein N of SARS-CoV Urbani [3]: 0.4
Binding of serum London to looped/cyclic peptides of protein N of SARS-CoV Urbani [3]: 0.5
Binding of serum SARS-green to linear peptides of protein N of SARS-CoV Urbani [3]: 0.2
Binding of serum SARS-green to looped/cyclic peptides of protein N of SARS-CoV Urbani [3]: 0.7
Binding of serum SARS-yellow to linear peptides of protein N of SARS-CoV Urbani [3]: 0.7
Binding of serum SARS-yellow to looped/cyclic peptides of protein N of SARS-CoV Urbani [3]: 0.6
Binding of a rabbit serum to linear peptides of protein N of SARS-CoV Urbani (Rabbit serum linear peptides) [4]: 0.1
Binding of a rabbit serum to looped/cyclic peptides of protein N of SARS-CoV Urbani (Rabbit serum looped peptides) [4]: 0.6

QTQGNFGDQDLIRQG
Binding of antibody 03-018 to linear peptides of the N protein of SARS-CoV Urbani [1]: 0.1
Binding of antibody 03-018 to looped/cyclic peptides of the N protein of SARS-CoV Urbani [1]: 0.2
Binding of Control Serum Blood-Bank to Looped peptides [2]: 0.8
Binding of Control serum Blood-bank to linear peptides [2]: 0.9
Binding of Control serum LUMC to linear peptides [2]: 0.9
Binding of Control serum LUMC to looped peptides [2]: 0.7
Binding of serum 1a to looped/cyclic peptides of protein N of SARS-CoV Urbani [3]: 0.5
Binding of serum 1b to looped/cyclic peptides of protein N of SARS-CoV Urbani [3]: 0.4
Binding of serum 2 to looped/cyclic peptides of protein N of SARS-CoV Urbani [3]: 0.5
Binding of serum 6 to looped/cyclic peptides of protein N of SARS-CoV Urbani [3]: 0.3
Binding of serum 37 to looped/cyclic peptides of protein N of SARS-CoV Urbani [3]: 0.9
Binding of serum 62 to looped/cyclic peptides of protein N of SARS-CoV Urbani [3]: 0.9
Binding of serum London to looped/cyclic peptides of protein N of SARS-CoV Urbani [3]: 0.6
Binding of serum SARS-green to looped/cyclic peptides of protein N of SARS-CoV Urbani [3]: 0.4
Binding of serum SARS-yellow to looped/cyclic peptides of protein N of SARS-CoV Urbani [3]: 0.8
Recognition of the peptide by sera of SARS-CoV infected individuals, and form (linear, looped/cyclic) in which it is recognized [3]: recognized in linear form
Binding of a rabbit serum to linear peptides of protein N of SARS-CoV Urbani (Rabbit serum linear peptides) [4]: 0.1
Binding of a rabbit serum to looped/cyclic peptides of protein N of SARS-CoV Urbani (Rabbit serum looped peptides) [4]: 0.6

QTVTKKSAAEASKKP
Binding of antibody 03-018 to linear peptides of the N protein of SARS-CoV Urbani [1]: 0.1
Binding of antibody 03-018 to looped/cyclic peptides of the N protein of SARS-CoV Urbani [1]: 0.2
Binding of Control Serum Blood-Bank to Looped peptides [2]: 0.5
Binding of Control serum Blood-bank to linear peptides [2]: 0.8
Binding of Control serum LUMC to linear peptides [2]: 0.9
Binding of Control serum LUMC to looped peptides [2]: 0.5
Binding of serum 1a to looped/cyclic peptides of protein N of SARS-CoV Urbani [3]: 0.3
Binding of serum 1b to looped/cyclic peptides of protein N of SARS-CoV Urbani [3]: 0.2
Binding of serum 2 to looped/cyclic peptides of protein N of SARS-CoV Urbani [3]: 0.4
Binding of serum 6 to looped/cyclic peptides of protein N of SARS-CoV Urbani [3]: 0.2
Binding of serum 37 to looped/cyclic peptides of protein N of SARS-CoV Urbani [3]: 0.5
Binding of serum 62 to looped/cyclic peptides of protein N of SARS-CoV Urbani [3]: 0.3
Binding of serum London to looped/cyclic peptides of protein N of SARS-CoV Urbani [3]: 0.3
Binding of serum SARS-green to looped/cyclic peptides of protein N of SARS-CoV Urbani [3]: 0.0
Binding of serum SARS-yellow to looped/cyclic peptides of protein N of SARS-CoV Urbani [3]: 0.2
Recognition of the peptide by sera of SARS-CoV infected individuals, and form (linear, looped/cyclic) in which it is recognized [3]: recognized in linear form
Binding of a rabbit serum to linear peptides of protein N of SARS-CoV Urbani (Rabbit serum linear peptides) [4]: 0.2
Binding of a rabbit serum to looped/cyclic peptides of protein N of SARS-CoV Urbani (Rabbit serum looped peptides) [4]: 0.3
